Activity calls are given as the source filed them. The rule behind the calls is not given here.
Assays:
[1] = target: T1, Cholinesterase (Homo sapiens, UniProt P06276); test: Potency index, ratio of galantamine IC50 to compound IC50 for inhibition of BChE (unknown origin)
[2] = target: Acetylcholinesterase (Electrophorus electricus, UniProt O42275); test: Inhibition of electric eel AChE using acetylthiocholine as substrate preincubated for 15 mins followed by substrate addition measured after 5 mins by Ellman's method
Sequence of Acetylcholinesterase (O42275 whole entry): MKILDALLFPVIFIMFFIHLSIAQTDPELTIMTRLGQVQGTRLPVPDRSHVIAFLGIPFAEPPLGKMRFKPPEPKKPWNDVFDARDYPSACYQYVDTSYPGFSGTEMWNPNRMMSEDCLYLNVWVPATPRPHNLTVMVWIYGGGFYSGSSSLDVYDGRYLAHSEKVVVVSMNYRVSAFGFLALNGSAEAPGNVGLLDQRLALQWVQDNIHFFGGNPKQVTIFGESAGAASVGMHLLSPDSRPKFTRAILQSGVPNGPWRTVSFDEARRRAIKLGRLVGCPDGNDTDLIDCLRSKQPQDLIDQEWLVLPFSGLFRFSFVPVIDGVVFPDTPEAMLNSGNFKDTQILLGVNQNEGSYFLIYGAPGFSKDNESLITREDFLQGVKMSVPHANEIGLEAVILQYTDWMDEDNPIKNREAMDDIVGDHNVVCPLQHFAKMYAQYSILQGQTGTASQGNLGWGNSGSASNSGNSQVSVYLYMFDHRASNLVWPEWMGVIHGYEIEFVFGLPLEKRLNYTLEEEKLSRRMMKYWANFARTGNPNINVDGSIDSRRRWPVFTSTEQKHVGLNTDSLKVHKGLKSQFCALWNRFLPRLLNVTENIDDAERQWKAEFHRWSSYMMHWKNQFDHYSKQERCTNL

[3] = Selectivity ratio of IC50 for BChE (unknown origin) to IC50 for electric eel AChE
[4] = target: T1, Cholinesterase; test: Inhibition of BChE (unknown origin) using thiocholine as substrate preincubated for 15 mins followed by substrate addition measured after 5 mins by Ellman's method
[5] = target: Acetylcholinesterase (Electrophorus electricus) (UniProt O42275); test: Potency index, ratio of galantamine IC50 to compound IC50 for inhibition of electric eel AChE
Sequence of Acetylcholinesterase (Electrophorus electricus) (O42275 24-633 limits assumed): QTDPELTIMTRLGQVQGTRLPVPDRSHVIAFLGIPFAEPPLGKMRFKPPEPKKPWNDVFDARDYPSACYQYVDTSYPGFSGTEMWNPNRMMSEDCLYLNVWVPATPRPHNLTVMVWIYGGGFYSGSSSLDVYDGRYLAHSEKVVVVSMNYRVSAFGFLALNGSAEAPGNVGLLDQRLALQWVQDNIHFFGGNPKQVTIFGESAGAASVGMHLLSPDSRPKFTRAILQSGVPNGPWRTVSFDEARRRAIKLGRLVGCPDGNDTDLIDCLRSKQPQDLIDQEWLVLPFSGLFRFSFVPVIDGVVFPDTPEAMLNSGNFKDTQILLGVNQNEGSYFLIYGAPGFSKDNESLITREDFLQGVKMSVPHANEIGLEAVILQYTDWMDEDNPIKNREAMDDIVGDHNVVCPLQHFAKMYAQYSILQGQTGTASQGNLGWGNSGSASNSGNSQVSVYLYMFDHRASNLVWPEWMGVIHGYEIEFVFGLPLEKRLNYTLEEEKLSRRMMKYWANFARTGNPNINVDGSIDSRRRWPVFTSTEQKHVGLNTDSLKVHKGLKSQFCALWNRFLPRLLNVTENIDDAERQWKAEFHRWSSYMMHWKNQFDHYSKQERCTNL

[6] = target: Acetylcholinesterase (Electrophorus electricus) (UniProt O42275); test: Inhibition of electric eel AChE at 0.1 mg/ml using acetylthiocholine as substrate preincubated for 15 mins followed by substrate addition measured after 5 mins by Ellman's method
[7] = target: T1, Cholinesterase; test: Inhibition of BChE (unknown origin) at 0.1 mg/ml using thiocholine as substrate preincubated for 15 mins followed by substrate addition measured after 5 mins by Ellman's method

T1 sequence (P06276 whole entry): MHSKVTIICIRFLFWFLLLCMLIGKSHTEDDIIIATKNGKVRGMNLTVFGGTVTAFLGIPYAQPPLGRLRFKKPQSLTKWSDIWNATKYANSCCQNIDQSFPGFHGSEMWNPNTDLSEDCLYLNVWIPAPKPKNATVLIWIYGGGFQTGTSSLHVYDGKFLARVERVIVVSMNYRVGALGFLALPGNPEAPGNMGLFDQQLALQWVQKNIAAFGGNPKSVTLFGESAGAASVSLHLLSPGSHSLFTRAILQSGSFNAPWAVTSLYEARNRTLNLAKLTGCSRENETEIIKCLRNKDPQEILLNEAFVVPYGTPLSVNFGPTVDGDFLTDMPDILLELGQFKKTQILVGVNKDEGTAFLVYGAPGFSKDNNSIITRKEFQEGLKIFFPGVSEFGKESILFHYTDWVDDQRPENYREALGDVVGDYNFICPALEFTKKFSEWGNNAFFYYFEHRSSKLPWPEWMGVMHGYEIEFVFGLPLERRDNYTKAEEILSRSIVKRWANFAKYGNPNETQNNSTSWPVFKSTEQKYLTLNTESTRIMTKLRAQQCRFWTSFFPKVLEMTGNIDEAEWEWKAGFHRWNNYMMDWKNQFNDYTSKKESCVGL

| SMILES | Ratio IC50 [1] | IC50 [2] | Ratio IC50 [3] | IC50 [4] | Ratio IC50 [5] | inhibition [6] | inhibition [7] |
| --- | --- | --- | --- | --- | --- | --- | --- |
| CC(C)=CCC/C(C)=C/Cc1c(O)cc(O)c(CC=C(C)C)c1-c1cc2ccc(O)cc2o1 [LAKOOCHIN B] | 37 | 1080 nM | 0.09 | 100 nM | 2 |  |  |
| COc1cc(O)c(CC=C(C)C)c(-c2cc3ccc(O)c(C/C=C(\C)CCC=C(C)C)c3o2)c1 |  | 61900 nM | 0.76 | 47200 nM |  |  |  |
| COc1cc(O)c(CC=C(C)C)c(-c2cc3ccc(O)cc3o2)c1C/C=C(\C)CCC=C(C)C | < 10 |  |  | 630 nM |  | inactive |  |
| COc1ccc2cc(-c3cc(OC)c4c(c3CC=C(C)C)OC(C)(CCC=C(C)C)C=C4)oc2c1 (centres undefined) |  |  |  |  |  | inactive | inactive |
| COc1cc(-c2cc3ccc(O)cc3o2)c(CC=C(C)C)c2c1C=CC(C)(CCC=C(C)C)O2 (centres undefined) | < 10 |  |  | 310 nM |  | inactive |  |
| CC(C)=CCCC1(C)C=Cc2c(O)cc(-c3cc4ccc(O)cc4o3)c(CC=C(C)C)c2O1 (centres undefined) |  | 870 nM | 17.2 | 14900 nM | 2 |  |  |
| COc1cc(OC)c(C/C=C(\C)CCC=C(C)C)c(-c2cc3ccc(O)cc3o2)c1CC=C(C)C |  |  |  |  |  | inactive | inactive |
| COc1ccc2cc(-c3c(CC=C(C)C)c(O)cc(O)c3C/C=C(\C)CCC=C(C)C)oc2c1 | < 10 |  |  | 990 nM |  | inactive |  |
| Oc1cc(O)cc(/C=C/c2ccc(O)cc2O)c1 [OXYRESVERATROL] |  |  |  | 2950 nM |  | inactive |  |
| COc1cc(OC)c(CC=C(C)C)c(-c2cc3ccc(O)cc3o2)c1CC=C(C)C [LAKOOCHIN A] |  | 27400 nM | 0.5 | 13900 nM |  |  |  |
| Oc1cc(O)c2c(c1)O[C@H](c1ccc(O)c(O)c1)[C@@H](O)C2 |  |  |  |  |  | inactive | inactive |
| CC(C)=CCCC1(C)C=Cc2c(O)cc(-c3cc4c(O)cc(O)cc4o3)c(CC=C(C)C)c2O1 (centres undefined) |  | 1100 nM | 8.05 | 8860 nM | 2 |  |  |
| COc1ccc2cc(-c3cc(O)c4c(c3CC=C(C)C)OC(C)(CCC=C(C)C)C=C4)oc2c1 (centres undefined) | < 10 |  |  | 1110 nM |  | inactive |  |
| CC(C)=CCc1c(-c2cc3ccc(O)cc3o2)cc2c3c1O[C@@]1(C)CCC([C@@H]3C1)C(C)(C)O2 (some centres undefined) |  |  |  | 1560 nM |  | inactive |  |
| COc1cc(O)c(C/C=C(\C)CCC=C(C)C)c(-c2cc3ccc(O)cc3o2)c1CC=C(C)C | < 10 |  |  | 510 nM |  | inactive |  |
